Values of other authors in patent US8613946B2, “Carotenoids of enhanced bioavailability” (ISP Investment Inc., priority 2006, dated 2013).
Like-named read-outs stand apart in the source and are kept apart here.

[1] = classification of The Merck Index

| SMILES | solubility in water [1] | solubility in water (statement of The PDR For Nutritional Supplements) |
| --- | --- | --- |
| CC1=CCCC(C)(C)C1/C=C/C(C)=C/C=C/C(C)=C/C=C/C=C(C)/C=C/C=C(C)/C=C/C1=C(C)CCCC1(C)C (stereo not drawn) [α-carotene] | practically insoluble in water | – |
| CC1=C(/C=C/C(C)=C/C=C/C(C)=C/C=C/C=C(C)/C=C/C=C(C)/C=C/C2=C(C)CCCC2(C)C)C(C)(C)CCC1 [β-carotene] | practically insoluble in water | – |
| CC(C)=CCC/C(C)=C/C=C/C(C)=C/C=C/C(C)=C/C=C/C=C(C)/C=C/C=C(C)/C=C/C=C(\C)CCC=C(C)C [lycopene] | – | insoluble in water |
| CC1=C[C@H](O)CC(C)(C)[C@H]1/C=C/C(C)=C/C=C/C(C)=C/C=C/C=C(C)/C=C/C=C(C)/C=C/C1=C(C)C[C@@H](O)CC1(C)C [lutein] | insoluble in water | – |
